Columns and labels:
[1] = system: P. aeruginosa ATCC 27853 (strain I); type: cell-based; settings: up to 15 passages
Method: (§1) The bacteria were grown in MH broth at 37° C. for these experiments. […] The resulting cultures were diluted 1:1000 and grown until the culture reached ˜300,000 cfu/mL. That culture was then further diluted 1:1000 and used to determine the next round of MIC values.

[2] = system: L. monocytogenes ATCC 19115 (strain B); type: cell-based, Listeria monocytogenes; settings: up to 15 passages
Method: as §1

VRE (strain D) = type: cell-based, enterococcus; settings: up to 15 passages
Method: as §1

C. albicans ATCC 10231 [3] = type: cell-based, Candida albicans; settings: repeated treatments with sub-MIC drug concentrations
MRSA (strain C) = type: cell-based, Staphylococcus aureus; settings: up to 15 passages
Method: as §1

hERG channel = hERG channel (Homo sapiens, UniProt Q12809); assay: in vitro; settings: pH 7.4
Sequence of hERG channel (Q12809 whole entry): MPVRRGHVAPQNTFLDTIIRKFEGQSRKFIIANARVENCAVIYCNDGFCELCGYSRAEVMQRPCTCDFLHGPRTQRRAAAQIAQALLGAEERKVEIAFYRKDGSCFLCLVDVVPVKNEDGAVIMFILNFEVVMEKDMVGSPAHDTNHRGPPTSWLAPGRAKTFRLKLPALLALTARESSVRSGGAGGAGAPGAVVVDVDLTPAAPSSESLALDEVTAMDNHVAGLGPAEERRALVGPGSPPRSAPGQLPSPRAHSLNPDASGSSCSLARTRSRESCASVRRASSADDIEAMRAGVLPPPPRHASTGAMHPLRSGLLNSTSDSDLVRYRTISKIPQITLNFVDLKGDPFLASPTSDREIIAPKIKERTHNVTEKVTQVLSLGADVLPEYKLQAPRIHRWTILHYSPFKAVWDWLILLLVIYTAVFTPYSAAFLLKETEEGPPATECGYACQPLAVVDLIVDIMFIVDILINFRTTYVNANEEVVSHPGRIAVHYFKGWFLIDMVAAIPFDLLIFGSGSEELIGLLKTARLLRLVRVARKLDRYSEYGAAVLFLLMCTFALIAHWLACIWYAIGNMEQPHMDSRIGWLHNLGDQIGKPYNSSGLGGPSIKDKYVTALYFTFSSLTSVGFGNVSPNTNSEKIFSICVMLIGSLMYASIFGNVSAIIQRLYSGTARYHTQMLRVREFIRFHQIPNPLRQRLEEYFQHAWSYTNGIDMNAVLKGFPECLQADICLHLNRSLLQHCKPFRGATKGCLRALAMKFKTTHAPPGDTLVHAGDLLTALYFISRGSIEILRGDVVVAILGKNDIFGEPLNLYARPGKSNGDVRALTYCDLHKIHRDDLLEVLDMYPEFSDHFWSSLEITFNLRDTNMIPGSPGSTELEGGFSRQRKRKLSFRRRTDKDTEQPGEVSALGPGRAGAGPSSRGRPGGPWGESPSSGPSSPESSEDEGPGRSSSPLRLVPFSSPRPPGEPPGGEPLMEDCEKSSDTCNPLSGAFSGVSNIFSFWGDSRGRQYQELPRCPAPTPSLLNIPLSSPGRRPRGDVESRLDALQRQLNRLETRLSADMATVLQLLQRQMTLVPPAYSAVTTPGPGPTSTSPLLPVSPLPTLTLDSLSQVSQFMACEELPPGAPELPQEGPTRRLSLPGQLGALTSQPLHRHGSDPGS
Method: Assays were conducted in duplicate, and three independent assays were performed for each compound that was evaluated. Cell membrane suspension (5 μg) was added to duplicate tubes containing assay buffer (50 mM Tris, 10 mM KCl, and 1 mM MgCl2, pH 7.4), 25 μL of a single concentration of analogue (a concentration range of 10 nM-100 μM was employed for each experiment), and 25 μL of [^3H]dofetilide (5 nM, final concentration) for an assay volume of 250 μL. Nonspecific binding was assessed in the presence of 1 mM amitriptyline. Binding occurred for 60 min at 25° C. and was terminated by rapid filtration through Whatman GF/B filters, which were pre-soaked in 0.5% PEI for 2 h. Filters were washed three times with ˜1 mL of ice-cold assay buffer. Radioactivity retained by the filters was determined by liquid scintillation counting by using a Tri-Carb 2100TR liquid scintillation analyzer (PerkinElmer Life and Analytical Sciences, Boston, Mass.).

C. albicans ATCC 10231 [4] = assay: Intracellular ROS production, DCFH-DA fluorescence assay; type: cell-based, Candida albicans; settings: at 1× and 2× MIC values, 1 h at 35° C.
Description: We used the 2′,7′-dichlorodihydrofluorescein diacetate (DCFH-DA) dye as a probe to measure the production of ROS in yeast cells upon treatment with our compounds. DCFH-DA can easily cross the cell membranes and be hydrolyzed by cellular esterases to the non-fluorescent 2′,7′-dichlorodihydrofluorescein (DCFH), which can further be oxidized to the highly fluorescent 2′,7′-dichlorofluorescein (DCF) by the intracellular ROS. Five mL of RPMI 1640 medium were inoculated using a single colony of C. albicans ATCC 10231 (strain A) in a Falcon tube and grown overnight at 35° C. at 200 rpm. The overnight culture was diluted by adding 200 μL of yeast cells to 800 μL of the same medium. […] H2O2 at 1 mM was also used as a positive control. Cells were centrifuged and washed twice with PBS buffer (pH 7.2). Cells were resuspended in the same buffer and incubated with DCFH-DA (20 μg/mL) for 30 min in the dark. Afterwards, cells were centrifuged and washed with PBS buffer to remove excess DCFH-DA. Glass slides with 10-15 μL of each mixture were prepared and observed in bright field and fluorescence modes (FITC filter set, excitation and emission wavelengths of 488 and 512 nm, respectively) using a Zeiss Axovert 200M fluorescence microscope (FIG. 3).

[5] = Mammalian cell cytotoxicity, resazurin; type: cell-based; settings: human
Method: Another important aspect to consider during the development of antimicrobial agents is their potential toxicity towards mammalian cells. Having established the potent antimicrobial activities of the bis(N-amidino)hydrazones and N-amidino-N′-aryl-bishydrazones against bacteria and fungi, the toxicity profile of these compounds was determined against two mammalian cell lines (A549 and BEAS-2B; FIGS. 4A-B). […]. Cytotoxicity assays were performed as previously described. The human lung carcinoma epithelial cells A549 and the normal human bronchial epithelial cells BEAS-2B were grown in F12-K and DMEM medium containing 10% fetal bovine serum (FBS) and 1% antibiotics, respectively. The confluent cells were trypsinized with 0.05%-trypsin-0.53 mM EDTA, centrifuged (1,200 rpm) and resuspended in fresh medium (F12-K or DMEM). The cells were seeded into 96-well microtiter plates at a density of 3,000 cells/well and were grown overnight. […] Triton X-100® (0.5%, v/v) gave complete loss of cell viability and was used as the positive control. The percent cell survival was calculated as: (test value/control value)×100, where control value represents cells+resazurin−drug, and test value represents cells+resazurin+drug.

[6] = A549 lung carcinoma epithelial cells, A549, 24 h
[7] = BEAS-2B normal bronchial epithelial cells

| Structure (SMILES) | development of resistance (passages after which resistance developed) [1] | development of resistance (passages after which resistance developed) [2] | development of resistance (passages after which resistance developed) (VRE (strain D)) | development of drug resistance (C. albicans ATCC 10231 [3]) | development of resistance (passages after which resistance developed) (MRSA (strain C)) | IC50 at 60 min (hERG channel) [nM] | intracellular ROS production (C. albicans ATCC 10231 [4]) | IC50 at 24 h [5, 6] [µg/mL] | IC50 at 24 h [5, 7] [µg/mL] | melting point [°C] |
| --- | --- | --- | --- | --- | --- | --- | --- | --- | --- | --- |
| Cl.N=C(N)N/N=C/c1ccc(-c2ccc(C=NNc3ccccc3Cl)cc2)cc1 (mixture of isomers) [Compound 7Aa, E)-2-((4′-((E and Z)-(2-(2-Chlorophenyl)hydrazono)methyl)-[1,1′-biphenyl]-4-yl)methylene)hydrazine-1-carboximidamide monohydrochloride] | twelve | did not develop resistance | did not develop resistance | unable to develop drug resistance | twelve | 1140 ± 267 | significantly increased intracellular ROS production | – | – | – |
| Cl.Cl.N=C(N)N/N=C/c1ccc(-c2cccc(/C=N/NC(=N)N)c2)cc1 [Compound 3B, (2E,2′E)-2,2′-([1,1′-Biphenyl]-3,4′-diylbis(methanylylidene))bis(hydrazine-1-carboximidamide) dihydrochloride] | – | – | – | – | – | – | – | 7.8 to 15.6 | 7.8 to 15.6 | – |
| Cl.N=C(N)N/N=C/c1ccc(-c2ccc(/C=N/Nc3ccc(Cl)cc3)cc2)cc1 [Compound 7Ad, (E)-2-((4′-((E)-(2-(4-Chlorophenyl)hydrazono)methyl)-[1,1′-biphenyl]-4-yl)methylene)hydrazine-1-carboximidamide monohydrochloride] | – | – | – | – | – | – | – | 7.8 to 15.6 | 7.8 to 15.6 | > 380 |
| Cl.N=C(N)N/N=C/c1ccc(-c2ccc(/C=N/Nc3ccc(F)cc3F)cc2)cc1 [Compound 7Af, (E)-2-((4′-((E)-(2-(2,4-Difluorophenyl)hydrazono)methyl)-[1,1′-biphenyl]-4-yl)methylene) hydrazine-1-carboximidamide, monohydrochloride] | – | – | – | – | – | – | – | 7.8 to 15.6 | 7.8 to 15.6 | > 380 |

From patent publication US10173968B2, “Bishydrazone-based antifungal agents” (University of Kentucky Research Foundation, priority 2016, dated 2019)
